Measured values published in patent US11053234B2 (GlaxoSmithKline Intellectual Property Development Limited, priority 2016, dated 2021).
Where a name gives a salt, the structure may show the parent alone.

Biological target: T1, haematopoietic prostaglandin D synthase (H-PGDS) (Homo sapiens, UniProt O60760)
T1 construct: Full length human H-PGDS cDNA (Invitrogen Ultimate ORF 10H13026) was amplified by PCR; 6-His (N); TEV protease cleavage site (N); made in house; host or cells: E. coli BL21 (DE3*), vector pET22b+
T1 sequence (O60760 whole entry): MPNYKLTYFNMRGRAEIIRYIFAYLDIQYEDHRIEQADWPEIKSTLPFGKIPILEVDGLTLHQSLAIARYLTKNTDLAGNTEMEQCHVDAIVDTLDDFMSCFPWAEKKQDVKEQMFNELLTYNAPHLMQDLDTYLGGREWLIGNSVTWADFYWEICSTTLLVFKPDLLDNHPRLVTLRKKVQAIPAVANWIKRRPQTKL
Test: H-PGDS RapidFire high throughput mass spectrometry assay (conversion of PGH2 to PGD2)
Type: biochemical
Settings: 10 nM H-PGDS, PGH2 formed in situ by COX-2 from arachidonic acid; read-out: Potency Range (mean pIC50) (converted)
In short: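 PGH2 substrate generated in situ by COX-2 (full-length human, FLAG-tagged, Sf9-expressed) from arachidonic acid at ˜10 μM, then converted by full-length human His-tagged H-PGDS (E. coli-expressed). RapidFire SPE–triple quadrupole MS measured PGD2 against PGF2α as substrate surrogate to give percent conversion.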

Row | Structure (SMILES) | IC50 [nM]
1 | CC(C)(O)[C@@H]1CC[C@@H](NC(=O)[C@H]2C[C@H](Oc3cccc4cccnc34)C2)CO1 (racemic) [Example 195, Racemic (trans)-N-((trans)-6-(2-Hydroxypropan-2-yl)tetrahydro-2H-pyran-3-yl)-3-(quinolin-8-yloxy)cyclobutanecarboxamide] | 100 to 1000
2 | O=C(Nc1ccc(N2CCOCC2)cc1)N1CC(Oc2cccc3scnc23)C1 [Example 310, 3-(Benzo[d]thiazol-4-yloxy)-N-(4-morpholinophenyl)azetidine-1-carboxamide] | 10 to 79.4
3 | COc1ccc(F)cc1O[C@H]1C[C@H](C(=O)Nc2ncc(C(C)(C)O)s2)C1 [Example 165, (trans)-3-(5-Fluoro-2-methoxyphenoxy)-N-(5-(2-hydroxypropan-2-yl)thiazol-2-yl)cyclobutanecarboxamide] | 10 to 79.4
4 | CC(C)(O)[C@H]1CC[C@H](NC(=O)[C@H]2C[C@H](Oc3cccc4c(Br)coc34)C2)CC1 [Example 269, (trans)-3-((3-Bromobenzofuran-7-yl)oxy)-N-((trans)-4-(2-hydroxypropan-2-yl)cyclohexyl)cyclobutanecarboxamide] | 10 to 79.4
5 | O=C(NC1CCN(CC(F)(F)F)CC1)N1CC(Oc2cccc3scnc23)C1 [Example 91, 3-(Benzo[d]thiazol-4-yloxy)-N-(1-(2,2,2-trifluoroethyl)piperidin-4-yl)azetidine-1-carboxamide] | 10 to 79.4
6 | CC(N[C@H]1CC[C@H](NC(=O)[C@H]2C[C@H](Oc3cc(F)cc4scnc34)C2)CC1)C(F)F (mixture of isomers) [Example 121, Racemic (trans)-N-((trans)-4-((1,1-Difluoropropan-2-yl)amino)cyclohexyl)-3-((6-fluorobenzo[d]thiazol-4-yl)oxy)cyclobutanecarboxamide] | 10 to 79.4
7 | C=C(C)c1cnc(NC(=O)[C@H]2C[C@H](Oc3cccc4cccnc34)C2)s1 [Example 205, (trans)-N-(5-(Prop-1-en-2-yl)thiazol-2-yl)-3-(quinolin-8-yloxy)cyclobutanecarboxamide] | < 10
8 | COc1ccc(F)cc1O[C@H]1C[C@H](C(=O)Nc2nc(C3CC3)cs2)C1 [Example 167, (trans)-N-(4-Cyclopropylthiazol-2-yl)-3-(5-fluoro-2-methoxyphenoxy)cyclobutanecarboxamide] | < 10
9 | CC(C)(O)[C@H]1CC[C@H](NC(=O)N2CC(Oc3cccc4cccnc34)C2)CC1 [Example 185, N-((trans)-4-(2-Hydroxypropan-2-yl)cyclohexyl)-3-(quinolin-8-yloxy)azetidine-1-carboxamide] | 10 to 79.4
10 | CC(N[C@H]1CC[C@H](NC(=O)[C@H]2C[C@H](Oc3cccc4cccnc34)C2)CC1)C(F)F (mixture of isomers) [Example 180, Racemic (trans)-N-((trans)-4-((1,1-Difluoropropan-2-yl)amino)cyclohexyl)-3-(quinolin-8-yloxy)cyclobutanecarboxamide] | 100 to 1000
11 | CN(C)C(=O)c1csc(NC(=O)[C@H]2C[C@H](Oc3cccc4cccnc34)C2)n1 [Example 197, N,N-Dimethyl-2-((trans)-3-(quinolin-8-yloxy)cyclobutanecarboxamido)thiazole-4-carboxamide, trifluoroacetic acid salt] | < 10
12 | N#Cc1cnc(NC(=O)[C@H]2C[C@H](Oc3cccc4cccnc34)C2)s1 [Example 190, (trans)-N-(5-Cyanothiazol-2-yl)-3-(quinolin-8-yloxy)cyclobutanecarboxamide] | 10 to 79.4
13 | CC(C)(O)[C@H]1C[C@H](NC(=O)[C@H]2C[C@H](Oc3cccc4cccnc34)C2)C1 [Example 223, (trans)-N-((trans)-3-(2-Hydroxypropan-2-yl)cyclobutyl)-3-(quinolin-8-yloxy)cyclobutanecarboxamide] | 100 to 1000
14 | COCCO[C@H]1CC[C@H](NC(=O)N2CC(Oc3cccc4scnc34)C2)CC1 [Example 59, 3-(Benzo[d]thiazol-4-yloxy)-N-((trans)-4-(2-methoxyethoxy)cyclohexyl)azetidine-1-carboxamide] | 10 to 79.4
15 | Cn1cc(NC(=O)N2CC(Oc3cccc4scnc34)C2)cn1 [Example 324, 3-(Benzo[d]thiazol-4-yloxy)-N-(1-methyl-1H-pyrazol-4-yl)azetidine-1-carboxamide] | 100 to 1000
16 | CC(C)(O)[C@H]1CC[C@H](NC(=O)[C@H]2C[C@H](Oc3cccc4cccnc34)C2)CC1 [Example 225, N-((trans)-4-(2-Hydroxypropan-2-yl)cyclohexyl)-3-(quinolin-8-yloxy)cyclobutanecarboxamide] | 10 to 79.4
17 | O=C(NC1CN(CC(F)F)C1)[C@H]1C[C@H](Oc2cc(F)ccc2OC(F)F)C1 [Example 15, (trans)-N-(1-(2,2-Difluoroethyl)azetidin-3-yl)-3-(2-(difluoromethoxy)-5-fluorophenoxy)cyclobutanecarboxamide] | 100 to 1000

Row | Structure (SMILES) | IC50 [nM]
18 | O=C(NC1CCN(c2ncc(F)cn2)CC1)N1CC(Oc2cc(F)cc3scnc23)C1 [Example 118, 3-((6-Fluorobenzo[d]thiazol-4-yl)oxy)-N-(1-(5-fluoropyrimidin-2-yl)piperidin-4-yl)azetidine-1-carboxamide] | 10 to 79.4
19 | CC1(NC(=O)[C@H]2C[C@H](Oc3cc(F)cc4scnc34)C2)CN(c2ncccn2)C1 [Example 238, (trans)-3-((6-Fluorobenzo[d]thiazol-4-yl)oxy)-N-(3-methyl-1-(pyrimidin-2-yl)azetidin-3-yl)cyclobutanecarboxamide] | 100 to 1000
20 | CC(C)(O)[C@H]1CC[C@H](NC(=O)[C@H]2C[C@H](Oc3cc(F)cc4ccoc34)C2)CC1 [Example 227, (trans)-3-((5-Fluorobenzofuran-7-yl)oxy)-N-((trans)-4-(2-hydroxypropan-2-yl)cyclohexyl)cyclobutanecarboxamide] | 10 to 79.4
21 | COc1ccc(F)cc1O[C@H]1C[C@H](C(=O)NC2CCN(C(=O)OC(C)(C)C)C2)C1 (mixture of isomers) [Example 143, tert-butyl 3-((trans)-3-(5-fluoro-2-methoxyphenoxy)cyclobutanecarboxamido)pyrrolidine-1-carboxylate] | 10 to 79.4
22 | CC(C)(O)[C@H]1CC[C@H](NC(=O)[C@H]2C[C@H](Oc3cc(Cl)ccc3OC(F)F)C2)CC1 [Example 273, (trans)-3-(5-Chloro-2-(difluoromethoxy)phenoxy)-N-((trans)-4-(2-hydroxypropan-2-yl)cyclohexyl)cyclobutanecarboxamide] | 10 to 79.4
23 | CC(C)(O)[C@H]1CC[C@H](NC(=O)[C@H]2C[C@H](Oc3cc(F)cc4cccnc34)C2)CC1 [Example 295, (trans)-3-((6-Fluoroquinolin-8-yl)oxy)-N-((trans)-4-(2-hydroxypropan-2-yl)cyclohexyl)cyclobutanecarboxamide] | 10 to 79.4
24 | CC(C)(O)[C@H]1CC[C@H](NC(=O)N2CC(Oc3ccccc3OC(F)(F)F)C2)CC1 [Example 258] | 100 to 1000
25 | O=C(NC1CCc2ccccc21)[C@H]1C[C@H](Oc2cccc3cccnc23)C1 (mixture of isomers) [Example 212, Racemic (trans)-N-(2,3-Dihydro-1H-inden-1-yl)-3-(quinolin-8-yloxy)cyclobutanecarboxamide] | 10 to 79.4
26 | CCOCCNC(=O)c1ccc(N2CC(NC(=O)[C@H]3C[C@H](Oc4cc(F)cc5scnc45)C3)C2)nn1 [Example 234, N-(2-Ethoxyethyl)-6-(3-((trans)-3-((6-fluorobenzo[d]thiazol-4-yl)oxy)cyclobutanecarboxamido)azetidin-1-yl)pyridazine-3-carboxamide] | 10 to 79.4
27 | COc1ccc(F)cc1O[C@H]1C[C@H](C(=O)NC2CCN(c3nnnn3C)CC2)C1 [Example 152, (trans)-3-(5-Fluoro-2-methoxyphenoxy)-N-(1-(1-methyl-1H-tetrazol-5-yl)piperidin-4-yl)cyclobutanecarboxamide] | 10 to 79.4
28 | CC(C)c1csc(NC(=O)[C@H]2C[C@H](Oc3cccc4cccnc34)C2)n1 [Example 206, (trans)-N-(4-Isopropylthiazol-2-yl)-3-(quinolin-8-yloxy)cyclobutanecarboxamide] | < 10
29 | O=C(Nc1nc(C2CC2)ns1)N1CC(Oc2cccc3scnc23)C1 [Example 338, 3-(Benzo[d]thiazol-4-yloxy)-N-(3-cyclopropyl-1,2,4-thiadiazol-5-yl)azetidine-1-carboxamide] | < 10
30 | COc1ccc(F)cc1O[C@H]1C[C@H](C(=O)NC2CCN(c3ncc(C#N)s3)C2)C1 (mixture of isomers) [Example 144, Racemic (trans)-N-(1-(5-Cyanothiazol-2-yl)pyrrolidin-3-yl)-3-(5-fluoro-2-methoxyphenoxy)cyclobutanecarboxamide] | 10 to 79.4
31 | CC(C)(C)OC(=O)N1CCC(NC(=O)N2CC(Oc3cccc4scnc34)C2)CC1 [Example 96, tert-butyl 4-(3-(benzo[d]thiazol-4-yloxy)azetidine-1-carboxamido)piperidine-1-carboxylate] | 100 to 1000
32 | O=C(c1csc(NC(=O)[C@H]2C[C@H](Oc3cccc4cccnc34)C2)n1)C1CC1 [Example 194, (trans)-N-(4-(Cyclopropanecarbonyl)thiazol-2-yl)-3-(quinolin-8-yloxy)cyclobutanecarboxamide] | 10 to 79.4
33 | CC(C)(O)[C@H]1CC[C@H](NC(=O)[C@H]2C[C@H](Oc3cc(F)cc(F)c3)C2)CC1 [Example 283, (trans)-3-(3,5-Difluorophenoxy)-N-((trans)-4-(2-hydroxypropan-2-yl)cyclohexyl)cyclobutanecarboxamide] | 100 to 1000
34 | CN/C(=N\C#N)N1CC(NC(=O)[C@H]2C[C@H](Oc3cccc4scnc34)C2)C1 [Example 65, (trans)-3-(Benzo[d]thiazol-4-yloxy)-N-(1-((E)-N′-cyano-N-methylcarbamimidoyl)azetidin-3-yl)cyclobutanecarboxamide] | 100 to 1000
